Experimental data as given in patent EP0793481B1, “COSMETIC COMPOSITION CONTAINING HYDROXY ALKANOATE DERIVATIVES” (priority 1993, dated 1995).
Read-outs that look alike come from different tables or passages of the source. Each block holds one molecule with its values, some of them ahead of it.

Legend:
[1] = Penetration of acyl lactylates: serial tape stripping of skin and lactate assay (Sigma 735-10) of the tapes; details: result in words; 10% by weight solutions, four hours
Procedure: The penetration of acyl lactylate and lactic acid in this manner can be determined by serial tape stripping and by biochemical assay of free lactate from skin cells adhering to the tape.
The methodology employed using pig skin is as follows:
The tape employed in this test is Desquame tape available from Diastron. Following topical application to skin of acyl lactylate, pieces of this tape are applied to the skin and then removed, and skin cells are assayed for lactate using Sigma 735-10 lactate assay kit. Thus, by repeated stripping of the same area of skin the degree of penetration of the topically applied acyl lactylate and its cleavage by epidermal esterases can be determined.
10% by weight solutions of sodium lactate (control) and of five different sodium acyl lactylates having from C8 to C18 acyl chains, were prepared in pH 7.0 Sorenson's phosphate buffer, 5 mM. Seven pieces of full thickness skin, taken from pig ear, were cut to 4 x 4cm and pinned out. 100 µl aliquots of the 6 test solutions were applied to the entire surface of six pieces of skin, the remaining piece of skin was used as a no-treatment control. […]
Each tape was placed in a labelled 1ml tube and 800µl of 5.00mM phosphate buffer, pH 7.00 was added to each tube. […] The buffer reagent mixture from each tube was then transferred to microcuvettes and the absorbtion of the solutions measured at 540nm using a spectrophotometer.

[2] = Deposition of radiolabelled lactylate from diluted detergent composition after rinse-off, scintillation count of tape strips; type: in vitro ADME, pig; details: result in words, 0.12M, 100 µl, left for 10 seconds and rinsed off
Procedure: Radiolabelled sodium lauroyl lactylate, as used in Example 2, was incorporated into a detergent composition containing
This solution was diluted with about four times its own volume of water, so that the concentration of sodium lauroyl lactylate was 0.12M.
100 µl quantities of this diluted solution were applied to test pieces of pig ear, left for 10 seconds and rinsed off. Excess water was removed with cotton wool, and nine tape strips were taken. All the tape strips were placed in a vial with phosphate buffer and scintillation fluid. The radiolabel content was measured using a scintillation counter.

[3] = Hydrolysis in skin: thin-layer chromatography of radiolabel extracted from tape strips; type: in vitro ADME, pig; details: after six hours; for metabolised at 6 h / remaining at 6 h: pig, ear skin, topical or ocular, mean of three repeats; for metabolised at 6 h: spot of hydrolysis products, read-out: % of total label, peak 1; for remaining at 6 h: spot of the applied compound itself, read-out: % of total label, peak 2
Procedure: In a similar experiment nine tape strips were taken after six hours. The first three strips were incubated in 3ml of phosphate buffer. The next three strips and the final three strips were likewise incubated. After 30 minutes the buffer solutions were spotted onto a thin-layer chromatography plate (bearing silica gel as the stationary phase).
The plate was eluted with 80:20:2 hexane:ether:acetic acid mixture. The spots on the plate were detected and quantified by their emitted radiation. […] The results (mean of three repeats) were:
The results of thin layer chromatography, showing the extent of hydrolysis were: […]

[4] = Lactic acid on tape strips from volar forearm after lauryl lactate dispersion; type: in vivo, human; design: unit not given here; details: 2% by weight dispersion in water, 100 µl
Procedure: This dispersion was tested on the volar forearm of a human volunteer. 100 µl of the dispersion was applied to each of three areas (15cm^2) on the volar forearm, rubbed in and allowed to dry. Ten Desquarne tape strips were taken fropm a fourth, untreated area. After 1 hour ten tape strips were taken from one treated area. Ten tape strips were taken from the other treated areas after 3 and 8 hours respectively. The tape strips taken after 1 hour and 3 hours were stored at room temperature for the rest of the 8 hour period, allowing enzymic hydrolysis.
The amount of lactic acid on each tape strip was determined, by the procedure quoted in Example 1. […] Moreover, this is at all levels, indicating penetration of the lactate ester into the skin where it is hydrolysed.

[5] = Measurement of skin conductivity (SKICON 200) as index of skin moisturisation, panel of volunteers; type: in vivo, human; details: for mean adjusted SKICON 200 readings: 100mM in buffer (3.0%), 100µl, relative to pretreatment reading
Text: The topical application to skin of hydroxyalkanoate derivatives improves the retention of moisture by the skin and/or increases the level of moisture in the skin to a significant extent. […] An increase in skin conductivity is thus used as an index of increase in skin moisturisation.
This method measures the cumulative effect of applying products to the skin, on the conductivity of the superficial stratum corneum.
It is well established that the conductivity of the skin, as measured by placing the probe of a suitable conductivity meter in contact with the skin, is proportional to the water content of the outermost strata of the epidermis. The measurement of skin conductivity can therefore be used to indicate the ability of a topically applied product to hydrate the epidermis: see D. van Neste, J. Dermatol Sci., 2, p119 - 124, (1991), "Comparative Study of Normal and Rough Human Skin Hydration in vivo: evaluation with four different instruments". The method is widely used and accepted as indicative of product skin moisturisation efficacy.
The device for measuring skin conductivity employed in this test is the SKICON 200, a skin hygrometer available from IBS Co.
A small panel of volunteers, greater than six in number and preferably from 12 to 20, is recruited for the test.
Two sites 3 x 4cm are marked onto each volar forearm at least 6cm from either the wrist or elbow and with a separation of at least 6cm. Each site is treated once a day for five consecutive days with 100µl of a single treatment material. Allocation of material to left or right arm, upper or lower site is varied to avoid site effects. A total of two treatment materials can be used, one site per panellist remaining untreated for the entire five day period.
On the first day of the test, panellists are allowed to equilibrate in a climate controlled environment (20°C 70% RH for 15 minutes with no significant sensory stimuli). Eight conductivity measurements are taken per site using random positions within the test site; these represent the baseline. 100µl of treatment material is then applied and gently rubbed into the test site for each of the three treatment sites. Further four sets of eight readings from the treatment sites are then taken one, two and four hours after application, again using the equilibration period in a climate controlled environment. This procedure is repeated on the following four days.
The effect of each treatment is then assessed using the following method: adjusted effect =(Mean treatment site reading)/(Mean pretreatment site reading) [formula]
This value is calculated for each treatment, for each timepoint on each day of treatment for each panellist, resulting in a final mean value for the adjusted effect for the entire panel also being obtained by calculation.
The following treatments were applied in this test • 1. 5mM Sorensons phosphate buffer pH 7.00 + 2% Nipagin • 2. 100mM Sodium dodecoyl lactylate in buffer (a concentration of 3.0%) • 3. No treatment
The results are shown in the table below which records the mean adjusted SKICON 200 readings (i.e. proportional to initial skin conductivity = moisturisation) at hourly periods up to 4 hours.

Structure (SMILES): CC(O)C(=O)O (centres unmarked) [G, sodium lactate, reference compound]
penetration into the stratum corneum [1]: virtually no penetration occurs

metabolised at 6 h ([3]; Tapes 1-3): 13.1%
remaining at 6 h ([3]; Tapes 1-3): 8.9%
metabolised at 6 h ([3]; Tapes 4-6): 35.1%
remaining at 6 h ([3]; Tapes 4-6): 64.9%
metabolised at 6 h ([3]; Tapes 7-9): 45.2%
remaining at 6 h ([3]; Tapes 7-9): 54.8%
Structure (SMILES): CCCCCCCCCCCC(=O)OC(C)C(=O)O (centres unmarked) [Lauroyl lactylate, Sodium lauroyl lactylate]
deposition onto the skin [2]: a small proportion of the radiolabelled lactylate had deposited onto the skin
hydrolysis in the skin ([3]; result in words): had occurred in each instance and had occurred to the greatest extent with the material which had penetrated furthest into the skin

amount of lactic acid on each tape strip ([4]; 1 Hour, Tape No 1): 0.289
amount of lactic acid on each tape strip ([4]; 1 Hour, Tape No 2): 0.361
amount of lactic acid on each tape strip ([4]; 1 Hour, Tape No 3): 0.217
amount of lactic acid on each tape strip ([4]; 1 Hour, Tape No 4): 0.124
amount of lactic acid on each tape strip ([4]; 1 Hour, Tape No 5): 0.192
amount of lactic acid on each tape strip ([4]; 1 Hour, Tape No 6): 0.201
amount of lactic acid on each tape strip ([4]; 1 Hour, Tape No 7): 0.179
amount of lactic acid on each tape strip ([4]; 1 Hour, Tape No 8): 0.177
amount of lactic acid on each tape strip ([4]; 1 Hour, Tape No 9): 0.211
amount of lactic acid on each tape strip ([4]; 1 Hour, Tape No 10): 0.169
amount of lactic acid on each tape strip ([4]; 3 Hours, Tape No 1): 0.282
amount of lactic acid on each tape strip ([4]; 3 Hours, Tape No 2): 0.250
amount of lactic acid on each tape strip ([4]; 3 Hours, Tape No 3): 0.252
amount of lactic acid on each tape strip ([4]; 3 Hours, Tape No 4): 0.262
amount of lactic acid on each tape strip ([4]; 3 Hours, Tape No 5): 0.485
amount of lactic acid on each tape strip ([4]; 3 Hours, Tape No 6): 0.487
amount of lactic acid on each tape strip ([4]; 3 Hours, Tape No 7): 0.271
amount of lactic acid on each tape strip ([4]; 3 Hours, Tape No 8): 0.246
amount of lactic acid on each tape strip ([4]; 3 Hours, Tape No 9): 0.254
amount of lactic acid on each tape strip ([4]; 3 Hours, Tape No 10): 0.269
amount of lactic acid on each tape strip ([4]; 8 Hours, Tape No 1): 0.260
amount of lactic acid on each tape strip ([4]; 8 Hours, Tape No 2): 0.210
amount of lactic acid on each tape strip ([4]; 8 Hours, Tape No 3): 0.250
amount of lactic acid on each tape strip ([4]; 8 Hours, Tape No 4): 0.222
amount of lactic acid on each tape strip ([4]; 8 Hours, Tape No 5): 0.259
amount of lactic acid on each tape strip ([4]; 8 Hours, Tape No 6): 0.230
amount of lactic acid on each tape strip ([4]; 8 Hours, Tape No 7): 0.241
amount of lactic acid on each tape strip ([4]; 8 Hours, Tape No 8): 0.234
amount of lactic acid on each tape strip ([4]; 8 Hours, Tape No 9): 0.194
amount of lactic acid on each tape strip ([4]; 8 Hours, Tape No 10): 0.449
Structure (SMILES): CCCCCCCCCCCCOC(=O)C(C)O (centres unmarked) [Lauryl lactate]

Structure (SMILES): CCCCCCCCCCCC(=O)OC(C)C(=O)O (centres unmarked) [Na Acyl Lactylate, Sodium dodecoyl lactylate]
mean adjusted SKICON 200 readings ([5]; T=0 Hr): 1.00
mean adjusted SKICON 200 readings ([5]; T=1 Hr): 1.27
mean adjusted SKICON 200 readings ([5]; T=2 Hr): 1.30
mean adjusted SKICON 200 readings ([5]; T=4 Hr): 1.31
moisturisation of the skin ([5]; result in words, compared with the buffer alone): significant moisturisation of the skin was achieved
